Target: BTK (Homo sapiens (Human), UniProt Q06187)
Assay: Assay for BTK inhibition activity (ELISA method)
Type: biochemical
Details: 0.4 nM BTK enzyme, 50 μM ATP, 20 minutes at 30° C.
Description: In order to evaluate the activity of the compounds of the present invention as a BTK inhibitor, commercially available BTK (Promega) was used for this experiment. Specifically, an enzymatic reaction was conducted by mixing 0.4 nM of BTK enzyme, 40 μM of biotin-S1 substrate peptide and 50 μM of ATP in a reaction buffer (15 mM Tris-HCl (pH 7.5), 20 mM MgCl2, 2 mM MnCl2, 2 mM DTT, 0.1 mg/ml BSA). The mixture was treated with the test compounds at predetermined concentrations and allowed to react for 20 minutes at 30° C. Upon completion of the reaction, the activities of the test compounds were measured by ELISA method. The absorbance value of an untreated sample was used as a control (100% control). BTK enzyme activities were measured after treatment with various concentrations of the test compounds, and the concentration of test compounds resulting in 50% inhibition of BTK enzyme as compared to the control was determined as IC50 of BTK inhibitor.

BTK, sequence (Q06187 whole entry): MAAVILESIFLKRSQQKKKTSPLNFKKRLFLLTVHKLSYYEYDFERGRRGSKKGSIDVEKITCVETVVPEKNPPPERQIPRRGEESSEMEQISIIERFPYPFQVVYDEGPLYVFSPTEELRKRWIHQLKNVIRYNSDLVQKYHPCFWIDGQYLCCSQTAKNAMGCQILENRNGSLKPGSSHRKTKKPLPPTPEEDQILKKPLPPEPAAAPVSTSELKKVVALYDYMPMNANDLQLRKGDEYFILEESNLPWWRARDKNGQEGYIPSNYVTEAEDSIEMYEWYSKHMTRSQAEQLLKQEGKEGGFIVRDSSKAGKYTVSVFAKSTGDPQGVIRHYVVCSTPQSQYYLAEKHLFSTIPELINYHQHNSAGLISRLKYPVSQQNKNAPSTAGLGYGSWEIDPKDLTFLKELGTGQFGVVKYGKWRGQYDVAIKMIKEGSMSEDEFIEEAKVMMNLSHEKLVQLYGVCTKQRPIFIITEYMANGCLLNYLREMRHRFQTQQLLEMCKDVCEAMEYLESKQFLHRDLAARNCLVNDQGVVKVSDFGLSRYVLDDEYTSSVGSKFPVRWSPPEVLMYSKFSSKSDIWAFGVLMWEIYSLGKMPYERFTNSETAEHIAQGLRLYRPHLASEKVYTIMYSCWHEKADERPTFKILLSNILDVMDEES

| Structure (SMILES) | IC50 |
| --- | --- |
| Cc1cnc(-c2ccc(-c3ccc(NC(=O)Nc4c(F)ccc(Cl)c4F)cc3F)c3c2C(=O)NC3)[nH]1 [Compound 17, 1-(3-chloro-2,6-difluorophenyl)-3-(3-fluoro-4-(7-(5-methyl-1H-imidazol-2-yl)-1-oxoisoindolin-4-yl)phenyl)urea] | 0.05 nM |
| Cc1cnc(-c2ccc(-c3ccc(NC(=O)Nc4c(F)c(F)c(F)c(F)c4F)cc3F)c3c2C(=O)NC3)[nH]1 [Compound 9, 1-{3-fluoro-4-[7-(5-methyl-1H-imidazol-2-yl)-1-oxo-2,3-dihydro-1H-isoindol-4-yl]-phenyl}-3-pentafluorophenyl-urea] | 0.4 nM |
| Cc1cnc(-c2ccc(-c3ccc(NC(=O)Nc4c(F)ccc(F)c4F)cc3F)c3c2C(=O)NC3)[nH]1 [Compound 12, 1-{3-fluoro-4-[7-(5-methyl-1H-imidazol-2-yl)-1-oxo-2,3-dihydro-1H-isoindol-4-yl]-phenyl}-3-(2,3,6-trifluoro-phenyl)-urea] | 0.28 nM |
| Cc1cnc(-c2ccc(-c3ccc(NC(=O)Nc4c(F)cc(F)cc4F)cc3F)c3c2C(=O)NC3)[nH]1 [Compound 7, 1-{3-fluoro-4-[7-(5-methyl-1H-imidazol-2-yl)-1-oxo-2,3-dihydro-1H-isoindol-4-yl]-phenyl}-3-(2,4,6-trifluoro-phenyl)-urea] | 0.1 nM |
| Cc1cnc(-c2ccc(-c3ccc(NC(=O)Nc4ccc(C#N)c(F)c4)cc3F)c3c2C(=O)NC3)[nH]1 [Compound 15, 1-(4-cyano-3-fluorophenyl)-3-(3-fluoro-4-(7-(5-methyl-1H-imidazol-2-yl)-1-oxoisoindolin-4-yl)phenyl)urea] | 5 nM |
| Cc1cnc(-c2ccc(-c3ccc(NC(=O)Nc4c(F)ccc(F)c4Cl)cc3F)c3c2C(=O)NC3)[nH]1 [Compound 18, 1-(2-chloro-3,6-difluorophenyl)-3-(3-fluoro-4-(7-(5-methyl-1H-imidazol-2-yl)-1-oxoisoindolin-4-yl)phenyl)urea] | 0.07 nM |
| Cc1cnc(-c2ccc(-c3ccc(NC(=O)Nc4c(F)cccc4F)cc3F)c3c2C(=O)NC3)[nH]1 [Compound 3, 1-(2,6-difluoro-phenyl)-3-{3-fluoro-4-[7-(5-methyl-1H-imidazol-2-yl)-1-oxo-2,3-dihydro-1H-isoindol-4-yl]-phenyl}-urea] | 1 nM |
| Cc1cnc(-c2ccc(-c3ccc(NC(=O)Nc4ccc(F)c(F)c4)cc3F)c3c2C(=O)NC3)[nH]1 [Compound 14, 1-(3,4-difluoro-phenyl)-3-{3-fluoro-4-[7-(5-methyl-1H-imidazol-2-yl)-1-oxo-2,3-dihydro-1H-isoindol-4-yl]-phenyl}-urea] | 5.6 nM |
| Cc1cnc(-c2ccc(-c3ccc(NC(=O)Nc4c(F)cccc4Cl)cc3F)c3c2C(=O)NC3)[nH]1 [Compound 4, 1-(2-chloro-6-fluoro-phenyl)-3-{3-fluoro-4-[7-(5-methyl-1H-imidazol-2-yl)-1-oxo-2,3-dihydro-1H-isoindol-4-yl]-phenyl}-urea] | 0.9 nM |
| Cc1cnc(-c2ccc(-c3ccc(NC(=O)Nc4c(F)c(F)cc(F)c4F)cc3F)c3c2C(=O)NC3)[nH]1 [Compound 20, 1-{3-fluoro-4-[7-(5-methyl-1H-imidazol-2-yl)-1-oxo-2,3-dihydro-1H-isoindol-4-yl]-phenyl}-3-(2,3,5,6-tetrafluoro-phenyl)-urea] | 0.9 nM |
| Cc1cnc(-c2ccc(-c3ccc(NC(=O)Nc4c(F)cc(Cl)cc4F)cc3F)c3c2C(=O)NC3)[nH]1 [Compound 19, 1-(4-chloro-2,6-difluoro-phenyl)-3-{3-fluoro-4-[7-(5-methyl-1H-imidazol-2-yl)-1-oxo-2,3-dihydro-1H-isoindol-4-yl]-phenyl}-urea] | 4 nM |
